Results: PMC7277387, “Tailoring Uptake Efficacy of HSV-1 gD Tailoring Uptake Efficacy of Hsv-1 GD Derived Carrier Peptides” (Biomolecules, 2020)

How the values were obtained:
[1] = format: physicochemical; details: 1 mg/mL in serum-free DMEM, 37 °C, samples at 0, 3, 6 and 24 h, RP-HPLC C18, A220
Method: Before the cellular uptake studies the stability of the Cf-labelled synthetic peptides was determined. Peptides were dissolved at 1 mg/mL concentration in serum-free DMEM medium (Lonza, Basel, Switzerland), and incubated at 37 °C for 24 h. Samples for RP-HPLC (Knauer, Berlin, Germany) were taken at 0, 3, 6 and 24 h. Phenomenex Luna C18 column (5 μm, 300 Å, 4.6 mm × 250 mm) (Gen-Lab Ltd., Budapest, Hungary) was applied with a gradient of 0–5 min 5% B eluent elevated to 55% B during 25 min, where eluent A: 0.1% TFA/water, eluent B: 0.1% TFA/acetonitrile–water 80:20 (v/v).
Figure S12. Stability study of (a) Cf-(236-255) and (b) Cf-(228-247), dissolved in DMEM serum free medium and incubated at 37 °C, followed by RP-HPLC. Samples for RP-HPLC (Knauer, Berlin, Germany) were taken at 0, 3, 6 and 24 hrs. Phenomenex Luna C18 column (5 μm, 300 Å, 4.6 mm × 250 mm) was applied with a gradient of 0-5 min 5% eluent B elevated to 55% B during 25 min, where eluent A: 0.1% TFA / water, eluent B: 0.1% TFA / acetonitrile –water 80:20 (v/v). Control: DMEM serum free medium. In case of Cf-(236-255) evaporation during the incubation caused increasing peptide peaks. Both peptides contain oxidation sensitive Trp residue. Cf -(236-255) was stable even after 24 h, the rising intensity of the peak representing the peptide is due to evap oration during the […]
to be stable during this interval. […]

[2] = test system: SH-SY5Y neuroblastoma cells; assay: Cellular uptake of Cf-labelled peptides by flow cytometry; details: for cellular uptake (in words): Figure S19
[3] = Secondary structure of acetylated peptides by far-UV ECD spectroscopy; format: physicochemical; details: acetylated peptide; for α-helix fraction (PEPFIT): far-UV ECD, PEPFIT fit
Method: ECD spectra of acetylated HSV peptides were recorded using a Jasco J-810 and Jasco J-715 spectropolarimeter (Jasco Corporation, Tokyo, Japan) in the λ = 180–270 nm wavelength range using a 0.02 or a 0.1 cm path length quartz cell at room temperature, under constant nitrogen flush with continuous scanning mode. All spectra reported here were obtained as an average of three or five individual scans and corrected with the solvent ECD spectra. The J-810 equipment was calibrated with ammonium α-10-camphor-sulfonate. The samples were dissolved in trifluoroethanol (TFE) (Sigma), distilled water and a 1:1 (v/v) mixture of TFE:water. The solution concentration was in the range of 0.5–0.7 mg/mL (J-810) or ~0.14 mg/mL (J-715) for peptide amides. ECD band intensities are expressed in mean residual molar ellipticity unit. The percentage of the different conformational elements contributing to the ECD spectra was calculated by the MS Excel version of the PEPFIT program developed originally by Reed and Reed. The algorithm estimates the percentage of secondary contents by fitting experimental ECD data to the combination of reference spectra. The best fit is defined by the R^2 value, where an R^2 = 1 corresponds to a perfect match.
The helical content of the peptides in different solvents was also estimated employing the simple equation formulated by Chen and Yang: fH = -([Θ]222 + 2340)/30,300 where fH the fraction of helix and [Θ]222 is the measured mean residual ellipticity at 222 nm. It seems that the helical fractions obtained correlate favourably with the results of the curve fitting procedure (Table 2). […]

Compound: CC[C@H](C)[C@H](NC(=O)[C@H](CCCCN)NC(=O)[C@H](CC(C)C)NC(=O)[C@H](CO)NC(=O)[C@H](Cc1ccc(O)cc1)NC(=O)[C@@H](NC(=O)[C@H](C)NC(=O)[C@@H](NC(=O)[C@@H](NC(=O)[C@H](CCCNC(=N)N)NC(=O)[C@H](CCC(N)=O)NC(=O)c1ccc2c(c1)C(=O)OC21c2ccc(O)cc2Oc2cc(O)ccc21)[C@@H](C)O)C(C)C)C(C)C)C(=O)N[C@@H](C)C(=O)NCC(=O)N[C@@H](Cc1c[nH]c2ccccc12)C(=O)N[C@@H](Cc1c[nH]cn1)C(=O)NCC(=O)N1CCC[C@H]1C(=O)N[C@@H](CCCCN)C(=O)N[C@@H](C)C(=O)N1CCC[C@H]1C(N)=O [Cf-(228–247)]
- stability of the intact peptide [1]: decreased intensity of the intact peptide

Compound: CC[C@H](C)[C@H](NC(=O)[C@H](CCCCN)NC(=O)[C@H](CC(C)C)NC(=O)c1ccc2c(c1)C(=O)OC21c2ccc(O)cc2Oc2cc(O)ccc21)C(=O)N[C@@H](C)C(=O)NCC(=O)N[C@@H](Cc1c[nH]c2ccccc12)C(=O)N[C@@H](Cc1c[nH]cn1)C(=O)NCC(=O)N1CCC[C@H]1C(=O)N[C@@H](CCCCN)C(=O)N[C@@H](C)C(=O)N1CCC[C@H]1C(=O)N[C@@H](Cc1ccc(O)cc1)C(=O)N[C@H](C(=O)N[C@@H](CO)C(=O)N[C@H](C(=O)N[C@@H](CC(C)C)C(=O)N[C@@H](CC(C)C)C(=O)N1CCC[C@H]1C(=O)N1CCC[C@H]1C(N)=O)[C@@H](C)O)[C@@H](C)O [Cf-(236–255)]
- stability of the intact peptide [1]: stable even

Compound: Cf-TKPKGTKPKG [OT10]
- cellular uptake (in words) ([2]; c = 10 µM, compared with Cf-HSV peptides): did not reach the level of internalisation of HSV peptides even with moderate uptake level
- cellular uptake (in words) ([2]; c = 50 µM): effective cellular uptake, though not reaching 100%

Compound: Cf-^219M*LPRFIPENQRTVAVYSLKI^238 [Cf-(219–238)]
- percentage of Cf-positive live cells ([2]; c = 2 μM, 3 h): 15–20%

Compound: ^-1 GKYALADASLKMADPNRF^19 [acetylated HSV-1 gD -1–19 peptide amide for ECD]
- disordered fraction (PEPFIT) ([3]; H2O): 64%
- turn fraction (PEPFIT) ([3]; H2O): 24%
- β-sheet fraction (PEPFIT) ([3]; H2O): 4%
- α-helix fraction (PEPFIT) ([3]; H2O, room temperature): 8%
- disordered fraction (PEPFIT) ([3]; H2O:TFE 1:1 (v/v)): 10%
- turn fraction (PEPFIT) ([3]; H2O:TFE 1:1 (v/v)): 40%
- β-sheet fraction (PEPFIT) ([3]; H2O:TFE 1:1 (v/v)): 0%
- α-helix fraction (PEPFIT) ([3]; H2O:TFE 1:1 (v/v)): 50%
- disordered fraction (PEPFIT) ([3]; TFE): 0%
- turn fraction (PEPFIT) ([3]; TFE): 30%
- β-sheet fraction (PEPFIT) ([3]; TFE): 0%
- α-helix fraction (PEPFIT) ([3]; TFE): 70%
